The values that follow are results of earlier work, collected in PMC13366575, “Structure−Activity Relationships among Inhibitors of Acinetobacter baumannii and Klebsiella pneumoniae 1-Deoxy-D-xylulose 5-Phosphate Reductoisomerase (DXR/IspC) − A Promising Target for Antibiotic Development” (ACS Infectious Diseases, 2026).

The data set deals with KpIspC (Klebsiella pneumoniae, UniProt A6T4X5).

pIC50: −log10 of the molar value.

Chain of KpIspC (A6T4X5 entry or part of it): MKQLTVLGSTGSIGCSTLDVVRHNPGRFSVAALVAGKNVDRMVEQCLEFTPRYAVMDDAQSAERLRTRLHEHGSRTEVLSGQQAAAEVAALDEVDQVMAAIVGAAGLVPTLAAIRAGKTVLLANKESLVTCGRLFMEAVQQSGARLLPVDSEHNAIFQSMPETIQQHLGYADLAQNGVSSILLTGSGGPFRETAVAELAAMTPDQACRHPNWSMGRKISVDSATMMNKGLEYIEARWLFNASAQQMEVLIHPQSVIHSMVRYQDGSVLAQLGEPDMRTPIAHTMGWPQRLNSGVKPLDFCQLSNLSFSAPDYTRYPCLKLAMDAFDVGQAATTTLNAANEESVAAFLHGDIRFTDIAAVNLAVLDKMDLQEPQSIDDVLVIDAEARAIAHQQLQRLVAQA

As to `O=CN(O)CCCP(=O)(O)O` [Compound 1a, Fosmidomycin], the pIC50 is 7.70.

As usually defined, the pIC50 is −log10 of the IC50, conventionally taken in molar units.
